Assay results reported in BindingDB's records for doi:10.1021/bi002865v (Pharmacia, 2001).
Where a SMILES comes first, the peptide text is derived from it. [ ]: non-standard residue; d: D form. sY = N[C@@H](Cc1ccc(OS(=O)(=O)O)cc1)C(=O)O; Nle = CCCC[C@H](N)C(=O)O

These compounds were tested against T1, Tyrosine-protein phosphatase non-receptor type 1 (Rattus norvegicus, UniProt P20417) (assay: PTP1B Inhibition Assay). Conditions: pH 7.2; 22 °C.
T1 sequence (P20417 whole entry): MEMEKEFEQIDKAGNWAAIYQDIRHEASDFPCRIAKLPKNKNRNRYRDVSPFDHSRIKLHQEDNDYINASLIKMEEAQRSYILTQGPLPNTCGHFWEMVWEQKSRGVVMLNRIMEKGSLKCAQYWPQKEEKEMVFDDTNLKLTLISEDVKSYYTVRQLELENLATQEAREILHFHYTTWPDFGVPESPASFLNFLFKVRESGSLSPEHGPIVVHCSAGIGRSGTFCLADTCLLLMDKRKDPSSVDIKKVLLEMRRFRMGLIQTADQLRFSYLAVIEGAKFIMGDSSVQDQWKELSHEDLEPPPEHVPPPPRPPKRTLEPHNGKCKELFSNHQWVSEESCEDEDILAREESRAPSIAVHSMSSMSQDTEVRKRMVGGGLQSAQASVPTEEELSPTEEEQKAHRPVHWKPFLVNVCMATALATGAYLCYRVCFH
Source text: Hydrolysis of substrate p-nitrophenyl phosphate was monitored on a 96-well microplate reader. Concentrations of PTP1B inhibitors that resulted in 50% reduction of enzyme activity (IC50) were derived by fitting reaction rates obtained in the presence and absence of compounds.
A Ki of 5 µM was found for `CCCC[C@H](NC(=O)[C@H](Cc1ccc(OS(=O)(=O)O)cc1)NC(=O)[C@H](CC(=O)O)NC(C)=O)C(N)=O` (Ac-Asp-[sY]-[Nle]-NH2) in this work. A Ki of 2.8 µM was found for `CCCCCNC(=O)[C@H](Cc1ccc(OCC(=O)O)c(C(=O)O)c1)NC(=O)CCC(=O)O` [2-(carboxymethoxy)-5-[(2S)-2-(3-formamidopropanoic acid)-2-(pentylcarbamoyl)ethyl]benzoic acid] in this work. A Ki of 0.12 µM was found for `CCCCCNC(=O)[C@H](Cc1ccc(OCC(=O)O)c(C(=O)O)c1)NC(=O)[C@H](Cc1ccccc1)NC(=O)Cn1[nH]ncc1=S` [2-(carboxymethoxy)-5-[(2S)-2-(pentylcarbamoyl)-2-[(2S)-3-phenyl-2-[1-(5-sulfanyl-1H-1,2,3-triazol-1-yl)acetamido]propanamido]ethyl]benzoic acid] in this work. A Ki of 12 µM was found for `CCCCCNC(=O)[C@H](Cc1ccc(OC(C(=O)O)C(=O)O)cc1)NC(=O)CCC(=O)O` [2-{4-[(2S)-2-(3-formamidopropanoic acid)-2-(pentylcarbamoyl)ethyl]phenoxy}propanedioic acid] in this work. A Ki of 1.2 µM was found for `CCCCCNC(=O)[C@H](Cc1ccc(OC(C(=O)O)C(=O)O)cc1)NC(=O)[C@H](Cc1ccccc1)NC(=O)CCC(=O)O` [2-{4-[(2S)-2-[(2S)-2-(3-formamidopropanoic acid)-3-phenylpropanamido]-2-(pentylcarbamoyl)ethyl]phenoxy}propanedioic acid] in this work. A Ki of 30 µM was found for `CCCCCNC(=O)[C@H](Cc1ccc(OS(=O)(=O)O)cc1)NC(=O)CCC(=O)O` [Compound II] in this work. In the case of `CCCCCNC(=O)[C@H](Cc1ccc(OCC(=O)OC)c(C(=O)OC)c1)NC(=O)[C@H](Cc1ccccc1)NC(=O)CCC(=O)OC` [methyl 2-(2-methoxy-2-oxoethoxy)-5-[(2S)-2-[(2S)-2-(methyl 3-formamidopropanoate)-3-phenylpropanamido]-2-(pentylcarbamoyl)ethyl]benzoate], the Ki is reported as > 100 µM.
